Laboratory results published in PubChem BioAssay (NCI).
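The compound was tested at five concentrations on cells cultured in 96-well plates, with a 48-hour exposure period. TGI: total growth inhibition.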

Columns and labels:
Assay in all cases: DTP human tumour cell line panel, 48 h
[1] = system: A549 NSCLC
[2] = system: COLO 205 colon
[3] = system: K-562 leukemia
[4] = system: M14 melanoma
[5] = system: MCF7 breast
[6] = system: NCI-H522 lung
[7] = system: NCI/ADR-RES ovarian
[8] = system: SK-MEL-28 melanoma
[9] = system: SK-OV-3 ovarian
[10] = system: SR leukemia

SMILES | TGI [1] [µM] | TGI [2] [µM] | TGI [3] [µM] | TGI [4] [µM] | TGI [5] [µM] | TGI [6] [µM] | TGI [7] [µM] | TGI [8] [µM] | TGI [9] [µM] | TGI [10] [µM]
CCc1n[nH]c(=O)n1N=C(c1ccccc1)c1ccccc1 | > 100 | > 100 | > 100 | > 100 | > 100 | > 100 | > 100 | > 100 |  | 
Cc1sc2nc3n(c(=O)c2c1C)N=C(c1ccccc1)CS3 | > 100 | > 100 | > 100 |  | > 100 | > 100 | > 100 | > 100 | > 100 | > 100
COc1cc(CC(=O)c2cc3c(cc2-c2ccccc2)OCO3)cc(OC)c1OC | > 100 | > 100 | > 100 | > 100 |  | > 100 |  | > 100 | > 100 | 72.3
CCSc1[nH]c(NC(=NC(C)C)NC(=O)c2ccccc2)c(C(N)=O)c1C(N)=O | > 10 | > 10 | > 10 | > 10 | > 10 |  |  | > 10 | > 10 | > 10
Nc1ccn(CCCC(c2ccccc2)P(=O)(O)O)c(=O)n1 (centres undefined) | > 100 | > 100 | > 100 | > 100 |  | > 100 |  | > 100 | > 100 | > 100
COC(=O)C1CCCN1C(=O)OC(C)(C)C (centres undefined) | > 100 | > 100 | > 100 |  | > 100 |  | > 100 | > 100 | > 100 | > 100
O=C1CCc2ccccc2O1 |  | > 100 | > 100 |  | > 100 | > 100 | > 100 | > 100 | > 100 | > 100
O=C1C(=Cc2ccc([N+](=O)[O-])o2)C(=O)N(CCc2ccccc2)S(=O)(=O)N1CCc1ccccc1 | > 100 | 36.9 | > 100 | 29 |  | 34.5 |  | 28 | > 100 | 38.4
CC(C)(/C=N/O)/[N+]([O-])=C/c1ccccc1 | > 100 | > 100 |  | > 100 | > 100 |  | > 100 | > 100 | > 100 | 
O=C(CSc1nnc(-c2ccc(N=Cc3ccc(Cl)cc3)cc2)o1)Nc1cccc([N+](=O)[O-])c1 | > 100 | > 100 | > 100 | > 100 |  | > 100 |  | > 100 | > 100 | > 100
Cn1c(=O)oc2cc(C(=S)N3CCCCC3)ccc21 |  | > 100 | > 100 | > 100 | > 100 |  | > 100 | > 100 | > 100 | > 100
COc1ccc(N2C(=O)C3C=CC(n4[nH]c(=O)n(Cc5ccccc5)c4=O)CC3C2=O)cc1 (centres undefined) | > 100 | > 100 | > 100 | > 100 |  | > 100 |  | > 100 | > 100 | 
O=c1cc(NNc2cccc(F)c2)[nH]c(=S)[nH]1 | > 100 | > 100 | > 100 | > 100 | > 100 |  | > 100 | > 100 |  | > 100
O=C1C(Cl)C(c2ccc([N+](=O)[O-])cc2)N1n1cnc2ccccc2c1=O (centres undefined) | > 100 | > 100 | > 100 | > 100 |  | > 100 |  | > 100 | 50.3 | 
COc1cc(/C=C/C2=NN(c3cccc(S(=O)(=O)O)c3)C3(C2)SCC(=O)N3c2nc3ccccc3s2)cc(OC)c1OC (centres undefined) | > 100 | > 100 | > 100 | > 100 | > 100 | 38.4 | > 100 | > 100 |  | 66.2
COc1ccc(C2NC3=C(CCCC3)N2)cc1 | > 100 | > 100 |  | > 100 |  | > 100 |  | > 100 | > 100 | > 100
CON(C(=O)OC(C)(C)C)c1ccccc1 | > 100 | > 100 | > 100 | > 100 |  | > 100 | > 100 | > 100 | > 100 | > 100
NNC(=S)NN/C=C(\C=Nc1ccccc1)[N+](=O)[O-] | > 100 | > 100 |  | > 100 |  | > 100 |  | > 100 | > 100 | 
Cc1csc2c(=O)n(COCc3ccccc3)c(=O)[nH]c12 | > 100 | > 100 | > 100 | > 100 | > 100 | > 100 | > 100 | > 100 |  | > 100
Cc1cc2c(cc1-c1cc3c(cc1C)C(C(C)C)=C(O)C(=O)/C3=C\Nc1ccccn1)/C(=C/Nc1ccccn1)C(=O)C(O)=C2C(C)C | > 100 | > 100 | > 100 | > 100 | > 100 | 74.8 | > 100 | > 100 |  | > 100
Cc1cc(=O)[nH]c(NNC(C#N)c2ccc(N(C)C)cc2)n1 (centres undefined) | > 100 | > 100 | > 100 | > 100 |  | > 100 |  | > 100 | > 100 | > 100
COc1cc(CC2C(=O)OCC2[C@@H](OC(C)=O)c2ccc3c(c2)OCO3)c(Br)c(OC)c1OC (some centres undefined) | > 100 | > 100 |  | > 100 |  | > 100 |  | > 100 | > 100 | > 100
Clc1ccc(Nc2nnc(CNc3ccc(-c4nnc(Nc5ccc(Cl)cc5)o4)cc3)o2)cc1 | 30.2 | 36.3 | > 100 | 43.2 | 34.9 | 37.1 | > 77.9 | 34.7 | 49.7 | 
CCC1OC2C(CC=C(C)C)=C3OC(C)(O)C(C)(CC)C(=O)C3=C3OC(=O)C=C1C32 (centres undefined) | > 100 | 37 | 86.8 | > 100 | > 100 |  | 95.8 | > 100 | > 100 | 
O=C1NC2OC(CO)C(O)C(O)C2O1 (centres undefined) | > 100 | > 100 | > 100 | > 100 |  | > 100 |  | > 100 | > 100 | > 100
